Laboratory results: US10562947B2, “Compositions and methods for preventing or treating diseases, conditions or processes characterized by aberrant fibroblast proliferation and extracellular matrix deposition” (MOERAE MATRIX, INC., priority 2011, dated 2020)
Where a SMILES comes first, the peptide text is derived from it.

Columns and labels:
c-RAF(h) = c-RAF(h) (Homo sapiens, UniProt P04049); assay: Kinase Profiling Assay; format: biochemical; conditions: 100 μM peptide
Method in brief: (§1)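 In duplicate, the activities of 266 available human kinases were determined with MK2 inhibitory peptides present, as a measure of peptide selectivity.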

IL-6 = assay: Circulating inflammatory cytokines, bleomycin treatment model; format: in vivo, mouse; conditions: intraperitoneal or nebulized; 24 hours after final administration
phospho-Thr^334-MAPKAPK2 = assay: Activated MK2 immunostaining of lung sections, bleomycin treatment model; format: in vivo, mouse; conditions: 50 μg/kg daily IP or NEB, day 14 to 28
Source text: (§2) Briefly, C57-BL/6 mice were subjected to bleomycin injury at day 0. […] Formalin-fixed lung tissue sections were immunostained against phospho-Thr^334 MK2. Control staining was with biotinylated secondary IgG antibody. Streptavidin-conjugated horseradish peroxidase was used with 3,3′-diaminobenzidene as substrate and nuclei was counterstained with hematoxylin.

[1] = system: bleomycin-induced lung fibrosis in C57BL/6 mice; assay: Bleomycin mouse model of pulmonary fibrosis, treatment model (dosing day 14 to 28); format: in vivo; set-up: collagen deposition (hydroxyproline assay, whole left lung): dose or concentration left out as unconfirmed
Procedure: A mouse model of pulmonary fibrosis was generated by administering 0.025 U of bleomycin/PBS intratracheally to C57BL/6 mice. […] At 21 day post bleomycin delivery (for prevention model) or 28 post bleomycin delivery (for treatment model), groups of mice were sacrificed with a sodium pentobarbital injection (120 mg/kg) and the chest cavity was opened. The right mainstem bronchus was ligated and the right lung was removed. The trachea was cannulated and the left lung was perfused with 4% formaldehyde at 21 cm H2O pressure. The tissue blocks then were embedded in paraffin, and […] sections were prepared for staining. Sections from each animal were stained with hematoxylin and eosin (H&E) to visualize cells or with Masson's Trichrome staining to highlight collagen deposition. […] Stained sections were mounted onto a labeled glass slide with organic mounting medium.
The classic bleomycin model, as depicted in FIG. 10, has been used widely in the literature in the pre-fibrotic stage to test efficacy of any intervention. […]
Next, collagen deposition was determined quantitatively by using the standard hydroxyproline assay with whole left lung. Total collagen (soluble and insoluble) deposition was assessed by analyzing hydroxyproline concentrations in murine lungs day 28 post bleomycin injury.

splenic T cells = assay: Autologous mixed lymphocyte reaction of splenic T cells from treated bleomycin mice; format: in vivo, mouse; conditions: day 7 to 21
Source text: Recent studies highlighted a key role for T lymphocytes in bleomycin-induced fibrosis (Wilson, M. et al., The Journal of Experimental Medicine, 207(3): 535-552, 2010). […] Specifically, the ability of C57BL/6 purified antigen-presenting cells to induce proliferation in C57BL/6 T lymphocytes was examined in the assay.
C57-BL/6 mice were subjected to bleomycin injury at day 0. […] Splenic T cells were isolated and cultured alone or in the presence of autologous antigen presenting cells (APCs from C57-BL/6 mice) or stimulated with antibodies against CD3 (α-CD3) for 48 h. The cells then were radiolabeled with […] thymidine for 16 h and assessed for proliferation rates.

α-SMA = α-SMA immunostaining of lung sections, bleomycin treatment model; format: in vivo, mouse; conditions: 50 μg/kg/day IP or NEB, day 14 to 28; vs untreated bleomycin-injured lungs
Source text: as §2, with “C57-BL/6” for “Briefly, C57-BL/6”, “α-SMA.” for “phospho-Thr^334 MK2.”, “hematoxylin. Original magnifications: 20×” for “hematoxylin.”

TNF-α = assay: Circulating inflammatory cytokines, bleomycin treatment model; format: in vivo, mouse; conditions: intraperitoneal or nebulized; 24 hours after final administration
[2] = system: human airway smooth muscle (HASM); assay: ISO-induced relaxation of intact airway tissues in muscle bath; conditions: 200 μM pre-treatment for 30 min; n=4
Procedure: (A) Representative tracings of force generation. Cumulative contractile responses to CCH (B) and % relaxation to ISO doses (C). n=4; p<0.05. Inset is an immunoblot showing MK2 phosphorylation level. HASM was hung in the muscle bath and frozen. MK2 phosphorylation was determined by SDS PAGE and immunoblotting.

CK1γ2(h) = CK1γ2(h) (Homo sapiens, UniProt P78368); assay: Kinase Profiling Assay; format: biochemical; conditions: 100 μM peptide
Sequence of CK1γ2(h) (P78368 whole entry): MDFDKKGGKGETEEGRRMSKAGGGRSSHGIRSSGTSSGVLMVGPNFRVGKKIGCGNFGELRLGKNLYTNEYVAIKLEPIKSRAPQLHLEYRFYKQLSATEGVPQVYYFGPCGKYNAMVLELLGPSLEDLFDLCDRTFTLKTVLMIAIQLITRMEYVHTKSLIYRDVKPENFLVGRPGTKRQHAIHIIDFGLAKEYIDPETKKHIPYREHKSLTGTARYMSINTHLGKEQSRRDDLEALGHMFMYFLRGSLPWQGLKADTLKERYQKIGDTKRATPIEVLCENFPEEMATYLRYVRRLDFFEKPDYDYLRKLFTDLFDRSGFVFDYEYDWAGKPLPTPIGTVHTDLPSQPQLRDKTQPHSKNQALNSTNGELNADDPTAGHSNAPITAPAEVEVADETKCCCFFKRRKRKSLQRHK
Method in brief: as §1

CK1γ1(h) = CK1γ1(h) (Homo sapiens, UniProt Q9HCP0); assay: Kinase Profiling Assay; format: biochemical; conditions: 100 μM peptide
Sequence of CK1γ1(h) (Q9HCP0 whole entry): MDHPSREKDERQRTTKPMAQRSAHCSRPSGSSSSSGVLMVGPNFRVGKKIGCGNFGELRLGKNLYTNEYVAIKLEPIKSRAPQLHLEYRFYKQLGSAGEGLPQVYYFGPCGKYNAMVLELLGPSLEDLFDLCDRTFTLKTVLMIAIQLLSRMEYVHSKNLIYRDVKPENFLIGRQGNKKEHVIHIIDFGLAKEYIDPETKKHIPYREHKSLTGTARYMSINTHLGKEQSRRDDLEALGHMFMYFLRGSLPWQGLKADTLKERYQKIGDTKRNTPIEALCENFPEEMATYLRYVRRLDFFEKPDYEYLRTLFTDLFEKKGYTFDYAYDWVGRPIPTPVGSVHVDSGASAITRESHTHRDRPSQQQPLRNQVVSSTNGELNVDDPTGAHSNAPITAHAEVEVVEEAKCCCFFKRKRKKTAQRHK
Method in brief: as §1

CLK2(h) = CLK2(h) (Homo sapiens, UniProt P49760); assay: Kinase Profiling Assay; format: biochemical; conditions: 100 μM peptide
Sequence of CLK2(h) (P49760 whole entry): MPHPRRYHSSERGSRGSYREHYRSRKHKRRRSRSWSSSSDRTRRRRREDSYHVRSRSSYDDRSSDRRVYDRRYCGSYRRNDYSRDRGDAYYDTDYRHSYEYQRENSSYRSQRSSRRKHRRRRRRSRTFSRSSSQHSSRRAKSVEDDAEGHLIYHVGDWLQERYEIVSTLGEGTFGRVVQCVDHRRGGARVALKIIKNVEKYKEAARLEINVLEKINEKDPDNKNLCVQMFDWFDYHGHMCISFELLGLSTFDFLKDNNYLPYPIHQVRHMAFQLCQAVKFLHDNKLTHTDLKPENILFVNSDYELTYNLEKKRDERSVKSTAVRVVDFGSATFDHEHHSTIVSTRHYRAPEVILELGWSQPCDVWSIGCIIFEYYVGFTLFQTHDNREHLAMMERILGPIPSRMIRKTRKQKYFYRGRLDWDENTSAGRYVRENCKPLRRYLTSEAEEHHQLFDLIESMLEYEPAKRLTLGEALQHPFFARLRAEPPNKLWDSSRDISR
Method in brief: as §1

Plk1(h) = molecular target: T1, Plk1(h) (Homo sapiens, UniProt P53350); assay: Kinase Profiling Assay; format: biochemical; conditions: 100 μM peptide
T1 construct: purchased Millipore (IC50 Profiler Express service)
T1 sequence (P53350 whole entry): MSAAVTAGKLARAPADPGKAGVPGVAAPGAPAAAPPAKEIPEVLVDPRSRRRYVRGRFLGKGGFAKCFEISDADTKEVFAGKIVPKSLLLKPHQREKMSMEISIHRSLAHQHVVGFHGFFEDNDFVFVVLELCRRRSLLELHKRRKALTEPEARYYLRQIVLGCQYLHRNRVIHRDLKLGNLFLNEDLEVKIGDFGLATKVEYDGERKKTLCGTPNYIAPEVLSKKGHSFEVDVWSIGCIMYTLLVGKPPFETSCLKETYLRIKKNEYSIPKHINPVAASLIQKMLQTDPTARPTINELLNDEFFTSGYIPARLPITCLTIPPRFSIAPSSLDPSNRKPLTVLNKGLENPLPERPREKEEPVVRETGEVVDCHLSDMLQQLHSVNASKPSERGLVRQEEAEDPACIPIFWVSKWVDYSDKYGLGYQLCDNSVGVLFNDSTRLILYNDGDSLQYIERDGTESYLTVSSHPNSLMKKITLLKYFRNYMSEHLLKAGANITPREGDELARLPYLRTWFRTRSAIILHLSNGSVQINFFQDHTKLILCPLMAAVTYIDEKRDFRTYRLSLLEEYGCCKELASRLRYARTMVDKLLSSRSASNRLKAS
Method in brief: as §1

PAK6(h) = PAK6(h) (Homo sapiens, UniProt Q9NQU5); assay: Kinase Profiling Assay; format: biochemical; conditions: 100 μM peptide
Sequence of PAK6(h) (Q9NQU5 whole entry): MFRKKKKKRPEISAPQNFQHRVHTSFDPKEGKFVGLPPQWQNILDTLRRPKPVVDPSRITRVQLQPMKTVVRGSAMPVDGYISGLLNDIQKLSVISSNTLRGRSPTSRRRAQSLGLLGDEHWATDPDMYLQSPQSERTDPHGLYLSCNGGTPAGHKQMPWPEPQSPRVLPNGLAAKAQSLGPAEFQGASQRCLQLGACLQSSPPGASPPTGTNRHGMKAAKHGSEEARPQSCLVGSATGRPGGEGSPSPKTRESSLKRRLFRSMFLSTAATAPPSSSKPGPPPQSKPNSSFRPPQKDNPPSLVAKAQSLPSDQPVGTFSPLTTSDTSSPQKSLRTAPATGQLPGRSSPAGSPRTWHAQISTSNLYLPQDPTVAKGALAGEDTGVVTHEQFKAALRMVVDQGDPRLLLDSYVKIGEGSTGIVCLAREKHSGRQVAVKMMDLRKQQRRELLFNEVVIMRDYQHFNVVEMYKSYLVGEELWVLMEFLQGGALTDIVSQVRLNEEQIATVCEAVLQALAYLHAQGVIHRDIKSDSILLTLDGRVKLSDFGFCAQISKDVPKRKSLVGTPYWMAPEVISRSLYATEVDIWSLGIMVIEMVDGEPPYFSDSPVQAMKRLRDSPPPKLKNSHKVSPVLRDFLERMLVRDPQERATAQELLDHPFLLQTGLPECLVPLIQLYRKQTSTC
Method in brief: as §1

Molecule: HRRIKAWLKKIKALARQLGVAA (Mammalian) [MMI-0500]
- c-RAF(h) % activity (c-RAF(h)): 19%

Molecule: CC(C)C[C@H](NC(=O)[C@H](C)NC(=O)[C@H](CCCCN)NC(=O)[C@H](C)NC(=O)[C@H](CCCNC(=N)N)NC(=O)[C@H](C)NC(=O)[C@H](CCC(N)=O)NC(=O)[C@H](CCCNC(=N)N)NC(=O)[C@H](C)NC(=O)[C@H](C)NC(=O)[C@H](C)NC(=O)[C@H](CCCNC(=N)N)NC(=O)[C@H](C)NC(=O)[C@@H](N)Cc1ccc(O)cc1)C(=O)N[C@@H](C)C(=O)N[C@@H](CCCNC(=N)N)C(=O)N[C@@H](CCC(N)=O)C(=O)N[C@@H](CC(C)C)C(=O)NCC(=O)N[C@H](C(=O)N[C@@H](C)C(=O)N[C@@H](C)C(=O)O)C(C)C [MMI-0100] (H-YARAAARQARAKALARQLGVAA-OH; N-terminus and C-terminus assumed)
- plasma level of IL-6 (IL-6): significantly reduced
- activated MK2 (phospho-Thr^334-MAPKAPK2) staining (phospho-Thr^334-MAPKAPK2): decreased phospho-Thr^334-MAPKAPK2 staining
- collagen deposition (hydroxyproline assay, whole left lung) ([1]; IP or NEB from day 14, day 28 post bleomycin): significantly arrested further progression of collagen deposition
- lung architecture and collagen distribution (H&E, Masson's blue trichrome) ([1]; intraperitoneal or nebulized, daily day 14 to 28): clearer lung parenchyma
- proliferation of T cells in the presence of antigen presenting cells (splenic T cells; 50 μg/kg/day intraperitoneal (systemic)): significantly reduced
- proliferation of T cells in the presence of antigen presenting cells (splenic T cells; 50 μg/kg/day nebulizer (inhaled)): not by the inhaled mode
- toxicity (proliferative response of splenic T cells to α-CD3) (splenic T cells; 50 μg/kg/day): no toxicity
- level of α-SMA in lungs (α-SMA): significantly attenuated
- plasma level of TNF-α (TNF-α): significantly reduced
- ISO-induced relaxation [2]: enhances ISO-induced relaxation

Molecule: FAKLAARLYRKALARQLGVAA [MMI-0300]
- CK1γ2(h) % activity (CK1γ2(h)): 123%

Molecule: YARAAARQARAKALNRQLGVA (Mammalian) [MMI-0200]
- CK1γ1(h) % activity (CK1γ1(h)): 98%
- CLK2(h) % activity (CLK2(h)): 97%
- Plk1(h) % activity (Plk1(h)): 128%

Molecule: KAFAKLAARLYRKALARQLGVAA [MMI-0400]
- PAK6(h) % activity (PAK6(h)): 100%
